Measurements as given in paper PMC6076261, “A new quinoline-based chemical probe inhibits the autophagy-related cysteine protease ATG4B” (Scientific Reports, 2018).

What was measured:
SKBR3-hrGFP-LC3B cells = assay: High content screening of GFP-LC3B puncta; type: cell-based; details: 100 nM, 1 µM, 10 µM; 6 h and 24 h
Description: One hundred of the predicted best binding ATG4B inhibitors were obtained to test for effects on GFP-LC3B puncta levels in SKBR3-hrGFP-LC3B breast cancer cells cultured in standard fed conditions. Based on our observations using ATG4B-siRNAs (Figs 2a,b and S1) and several reports in the literature[22]–[24], we expected that reduced ATG4B function would primarily affect LC3B-II recycling and lead to an increase in GFP-LC3B puncta, whereas complete loss of ATG4B would also affect pro-LC3B processing and lead to a decrease in GFP-LC3B puncta formation. Compounds were initially tested at three concentrations (100 nM, 1 µM and 10 µM) and two treatment periods (6 hour and 24 hour). In parallel, all compounds were tested at a single concentration (8 µM) in a FRET-LC3 ATG4B enzymatic assay developed in our group. […] Calculations predicted that compound 1–4 bound to closed binding site#1 (Fig. S2) while 2–22 and 3–22 bound to open site#2 (Fig. S3) and 4–6 and 4–28 bound to closed site#2 (Figs S4 and S5). Of these, compounds 1–4 and 4–6 are biphenols which are potentially metabolically unstable by oxidation, sulfation and glucuronidation pathways. Compound 2–22 and 3–22 have electrophilic sites, which are drawbacks for drug development as they are prone to metabolic transformation and could lead to covalent bond formation with biological nucleophiles. […] It was nonetheless selected for further follow-up based on its favorable structural characteristics and resemblance to the known drugs and lysosomal-related autophagy inhibitors, chloroquine and hydroxychloroquine, and to the styrylquinoline, MK-571, a selective antagonist of leukotriene D4 known to have an excellent pharmacokinetic profile in terms of oral bioavailability and long duration of action.
High-throughput fluorescence microscopy was performed at room-temperature on the InCell Analyzer 1000 (GE Healthcare) using the 20X objective to view Hoescht 33342 nuclear stain, ethidium homodimer (EthD1) viability stain and GFP-LC3 puncta in SKBR3-hrGFP-LC3B cells. Thirty min prior to imaging, cells were incubated at 37 °C with 4 µM Hoechst 33342 (Invitrogen) and 0.5 µM EthD1 (Invitrogen). Image analysis was performed using InCell Developer Toolbox (Ver. 1.6, GE Healthcare). Individual cells were identified with segmentation of nuclei based on Hoechst 33342 staining. Cell borders were determined by defining a radius around the nucleus. Cells were classified as “dead” if the defined cell overlapped by at least 50% with the EthD1 signal. The number of GFP-LC3 puncta within each live cell was then counted, as well as the number of live cells with at least 5 puncta. Puncta were defined as GFP positive structures of at least 1 pixel with a form factor (estimate of circularity) of at least 0.4.

MCF7 cells = assay: LC3B-based autophagy flux assay (western blot) in MCF7 cells; type: cell-based; details: with and without bafilomycin A1
Description: While the effects observed were modest, this observation is consistent with reduced LC3B-II recycling and reduced autophagic flux.

[1] = Stability of 4-28 under irradiation, HPLC analysis; type: physicochemical
Description: 4–28 is a 4-aminostyrylquinoline, a structural class known to be photo-reactive[51]. In preliminary assays under standard conditions with the reducing agent TCEP present, we noted the formation of isomers and adducts between 4–28 and TCEP (Fig. 3b). Thus, to confirm the ability of 4–28 to inhibit ATG4B activity, we used a mass spectrometry assay using a GFP-LC3-YFP substrate[36] and by using activation of the enzyme with TCEP on solid support, which can be easily removed after the activation and prior to incubation with the inhibitor. […] (Fig. 3d). […] By these two assays, we confirmed the ability of 4–28 to inhibit ATG4B catalytic activity.
In our case, with incubation of 4–28 for 1 h under UV-irradiation, the formation of the cis compound was observed by HPLC and ^1H NMR along with other compounds consistent with further electrocyclization (Figs 3b and S6 and S7). Given these observed instabilities and reactivity, a structure-activity relationship study was initiated with an aim to identify an analog with improved stability and enhanced potency against ATG4B and with a pharmacokinetic profile suitable to support in vivo testing.

ATG4B [2] = target: T1, ATG4B (Homo sapiens, UniProt Q9Y4P1); assay: Mass spectrometry ATG4B enzymatic assay with GFP-LC3-YFP substrate
T1 sequence (Q9Y4P1 1-393): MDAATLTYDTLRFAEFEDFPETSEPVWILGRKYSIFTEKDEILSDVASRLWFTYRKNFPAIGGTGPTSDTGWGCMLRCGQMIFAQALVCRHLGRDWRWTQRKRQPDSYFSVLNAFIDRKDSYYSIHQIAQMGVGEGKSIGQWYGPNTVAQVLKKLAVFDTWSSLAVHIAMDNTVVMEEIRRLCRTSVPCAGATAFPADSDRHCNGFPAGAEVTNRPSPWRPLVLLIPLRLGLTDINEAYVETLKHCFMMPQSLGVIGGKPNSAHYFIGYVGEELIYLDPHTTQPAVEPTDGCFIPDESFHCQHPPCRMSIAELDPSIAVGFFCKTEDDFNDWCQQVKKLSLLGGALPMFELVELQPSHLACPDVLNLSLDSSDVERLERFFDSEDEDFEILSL
Protocol: The sample was centrifuged at 10000 × g during 1 min. The supernatant was removed. This operation was done two more times. […] 15 µL of this ATG4B solution were mixed with the 20 µL rinsed immobilized TCEP solution. The solution was incubated on a carousel at 4 °C for 1 h. […] Kinetic determination was performed in triplicate in 1 dram HPLC vials using 350 µL glass inserts. […] The analysis of the m/z distribution signal resulting from the protein substrate was performed by Agilent MassHunter Workstation software elucidating proteins 20000–80000 Da between 700 m/z and 1800 m/z. […] The amount of cleavage was determined by calculating the value of the formula A/(A + B) where A was the peak height of the 27885 Da residue and B was the peak height of the 72904 Da residue. Each experiment was assessed with a concomitant parallel negative control.

ATG4B [3] = target: T1, ATG4B; assay: FRET-LC3 ATG4B enzymatic assay; type: biochemical; details: read-out: inhibition in the screening FRET assay
ATG4B [4] = target: T1, ATG4B; assay: Fluorimetric ATG4B enzymatic assay with fluorescent peptide substrate pim-FG-PABA-AMC; type: biochemical; details: for IC50: pim-FG-PABA-AMC substrate, read-out: IC50, fluorimetric assay with fluorogenic peptide substrate
Protocol: 100 μL of immobilized TCEP in deionized water was diluted in 2.50 mL of buffer (50 mM Tris, 35 mM NaCl, pH = 8). The sample was centrifuged at 10,000 × g during 1 min. The supernatant was removed. This operation was done two more times. […] The solution was incubated on a carousel at 4 °C for 1 h. This solution was then diluted with 2.06 mL of buffer (50 mM Tris, 35 mM NaCl, 5 mM EDTA, pH 8), centrifuged at 10,000 × g during 1 min and the supernatant, containing the activated ATG4B (1 µM), was kept. A 96-well all-black plate was loaded where each well was charged with 55 µL of inhibitor at different concentrations (0 µM to 100 µM or 200 µM) in buffer/DMSO 41:3 (v/v) and 20 μL of enzyme or buffer were dispensed using a dispenser (Biotek). Plate was incubated for 30 min. A single read was done using excitation and emission wavelengths of 350/450 nm. 25 µL of peptide substrate (pim-FG-PABA-AMC)[52] (final assay concentration 100 µM) was dispensed using a dispenser (Biotek). Experiments were performed in triplicate except when it is mentioned. Fluorescent reads were performed using the Synergy 4 (Biotek) at 25 °C using excitation and emission wavelengths of 350/450 nm every 15 min for 2 h.

IC50 (ATG4B [4]) [µM]	Compound	effect on GFP-LC3 puncta in primary screen (SKBR3-hrGFP-LC3B cells)	other results
	Cc1cc(Cc2cc(C)c(O)c(CO)c2)cc(CO)c1O [1–4]	increase in GFP-LC3 puncta	
	COc1cccc(NC(=O)C(=O)C(C(=O)c2ccccc2F)C2OC(=O)c3ccccc32)c1 (stereo not shown) [2–22]	increase in GFP-LC3 puncta	
	O=C(Nc1ccc([N+](=O)[O-])cc1)C(=O)C(C(=O)c1ccccc1F)C1OC(=O)c2ccccc21 (stereo not shown) [3–22]	increase in GFP-LC3 puncta	
> 100	CCOC(=O)CCSC(SCCC(=O)OCC)c1ccc(/C=C/c2ccnc3cc(Cl)ccc23)cc1 [Compound 68]		
> 100	C=CCSC(SCC=C)c1ccc(/C=C/c2ccnc3cc(Cl)ccc23)cc1 [Compound 69]		
	CCN(CCO)CCCC(C)Nc1ccnc2cc(Cl)ccc12 (stereo not shown) [hydroxychloroquine, reference compound]		inhibition of activity of purified ATG4B (ATG4B [4]; up to 200 µM): did not show significant inhibition

Compound	IC50 (ATG4B [4]) [µM]	effect on GFP-LC3 puncta in primary screen (SKBR3-hrGFP-LC3B cells)	other results
CCCCN(CCC(=O)O)c1ccc(/C=C/c2ccnc3ccccc23)cc1 [4–28]	79 ± 9	decrease in GFP-LC3 puncta	endogenous LC3B-II (MCF7 cells): accumulation of LC3B-II that was not additive to bafilomycin A1; cis-isomer formed under assay conditions ([1]; 1 irradiation at 350 nm each 15 min for 2 h): 4%; stability under UV irradiation ([1]; 1 h UV irradiation, HPLC and 1H NMR): instability under UV irradiation; IC50 (ATG4B [2]): 116 ± 14 µM; inhibition at 8 µM (ATG4B [3]): 43%
